# Assay results from patent US20090162315A1 (priority 2004, published 2009).
# Several values for one entry are separate records, joined by “and”; a condition that tells them apart may be missing. Equal values may be shown once.
# How the values were obtained:
# [1] = test system: T84 human colon-carcinoma cells; type: cell-based
# patients with MPE = conditions: in vivo; cited from earlier work
# [2] = test system: T84 human colon-carcinoma cells; type: cell-based; remark: listed apart in the source
# [3] = test system: T84 human colon-carcinoma cells; type: cell-based; remark: listed apart in the source
Molecule,Δ Isc to CCh (μA/cm2) [1],Δ Isc to Fsk (% of control) [1],Response rate in MPE (patients with MPE),^51Cr-EDTA flux (nml · h · cm^2) [2],TER (Ω/cm^2) [3]
Staphylococcal enterotoxin B [SEB],23 μA/cm2,95 % of control,–,–,–
bleomycin,–,–,50%,–,–
"N.N.[Cl][Pt][Cl] [Cisplatin, cis-diaminodichloroplatinum]",20 μA/cm2,90 % of control,–,2.8 nml · h · cm^2,800 Ω/cm^2 and 750 Ω/cm^2
